Assay results as given in US9440957B2, “Compounds and compositions for modulating EGFR Activity” (Novartis AG, priority 2012, dated 2016).
Where two headings read alike, the source gives them in different places.

Columns and labels:
[1] = biological target: T1, EGFR(L858R/T790M) (Homo sapiens, UniProt P00533, L858R/T790M); assay: EGFR biochemical assay (HTRF), IC50 determinations
T1 construct: purchased from Carna (GST-a.a. 669-1210)
Experimental: All EGFR biochemical assays were carried out by HTRF method. […] The substrate peptide Biotin-TK-peptide was purchased from Cis-Bio. […] All reactions were carried out at room temperature in white ProxiPlate™ 384-well Plus plates (PerkinElmer) and were quenched with 5 μL of 0.2 M EDTA at 60 min. Five L of the detection reagents (2.5 ng PT66K and 0.05 μg SAXL per well) were added, the plates were incubated at room temperature for 1 h and then read in EnVision reader. […] For no-preincubation condition, the compounds were added to the assay solution containing ATP and peptide, and the reaction was initiated by addition of enzyme. For pre-incubation conditions, the compounds were added to the assay solution containing enzyme and peptide, and pre-incubated at room temperature for desired period of time, then the reaction was initiated by addition of ATP.

[2] = biological target: human EGFR WT (NIH/3T3 cells, EGF-induced) (Homo sapiens, UniProt P00533); assay: EGFR target modulation in engineered NIH/3T3 cell lines (phospho-EGFR Y1068 AlphaLISA), EGFR WT; assay type: cell-based; conditions: engineered NIH/3T3 cells, read-out: NIH3T3 IC50 (μM) EGFR (WT)
Experimental: (§1) EGFR Target Modulation in Engineered NIH/3T3 Cell Lines Tissue Culture.
(§2) The cells were harvested with 0.05% Trypsin/EDTA (Hyclone #SH30236.01), re-suspended in 5% FBS/DMEM Pen/Strep without Puromycin and plated at 9,000 cells per well in 50 μl of media in a 384-well black plate with clear bottoms (Greiner #789068G). The cells were allowed to incubate overnight in a 37° C., 5% CO2 humidified tissue culture incubator. A 12-point test compound curve was prepared by serial diluting a 10 μM stock 1:3 in DMSO in a 384-well compound plate (Greiner #789201L). The serial diluted compounds were transferred to the plate containing cells by using a 50 nl Pin Head device (Perkin Elmer) and the cells were placed back in the incubator for 3 hours. Only the EGFR WT-expressing cells were induced with 50 ng/ml EGF (Preprotech #AF-100-15) for 5 minutes before lysis. […] The plates were shaken at 4° C. for 5 minutes with foil top at maximum speed. […] The plates were sealed with a foil top and frozen at −80° C. and thawed when needed.
(§3) The frozen aliquots were thawed and briefly centrifuged. All antibodies and beads were diluted in 1× AlphaLISA HiBlock Buffer (PE #AL004C). […] Goat anti-total EGFR (R&D Systems #AF231) was added and allowed to equilibrate for 1 hour at room temperature at 1 nM final concentration.
(§4) With these parameters, the IC50's for each compound in each cell line was calculated using non-linear curve fitting analysis.

[3] = biological target: human EGFR L858R (NIH/3T3 cells) (Homo sapiens, UniProt P00533, L858R); assay: EGFR target modulation in engineered NIH/3T3 cell lines (phospho-EGFR Y1068 AlphaLISA), EGFR L858R; assay type: cell-based; conditions: engineered NIH/3T3 cells, read-out: NIH3T3 IC50 (μM) EGFR (L858R)
Experimental: as §1, §2, §3, §4

[4] = biological target: human EGFR L858R/T790M (NIH/3T3 cells) (Homo sapiens, UniProt P00533, L858R/T790M); assay: EGFR target modulation in engineered NIH/3T3 cell lines (phospho-EGFR Y1068 AlphaLISA), EGFR L858R/T790M; assay type: cell-based; conditions: engineered NIH/3T3 cells, read-out: NIH3T3 IC50 (μM) EGFR (L858R/T790M)
Experimental: as §1, §2, §3, §4

[5] = EGFR (L858R/T790M) with 90 min pre-incubation, read-out: IC50 (μM) Column B
[6] = EGFR (L858R/T790M) with no pre-incubation, read-out: IC50 (μM) Column A

Chain of human EGFR WT (NIH/3T3 cells, EGF-induced) (P00533 25-1210): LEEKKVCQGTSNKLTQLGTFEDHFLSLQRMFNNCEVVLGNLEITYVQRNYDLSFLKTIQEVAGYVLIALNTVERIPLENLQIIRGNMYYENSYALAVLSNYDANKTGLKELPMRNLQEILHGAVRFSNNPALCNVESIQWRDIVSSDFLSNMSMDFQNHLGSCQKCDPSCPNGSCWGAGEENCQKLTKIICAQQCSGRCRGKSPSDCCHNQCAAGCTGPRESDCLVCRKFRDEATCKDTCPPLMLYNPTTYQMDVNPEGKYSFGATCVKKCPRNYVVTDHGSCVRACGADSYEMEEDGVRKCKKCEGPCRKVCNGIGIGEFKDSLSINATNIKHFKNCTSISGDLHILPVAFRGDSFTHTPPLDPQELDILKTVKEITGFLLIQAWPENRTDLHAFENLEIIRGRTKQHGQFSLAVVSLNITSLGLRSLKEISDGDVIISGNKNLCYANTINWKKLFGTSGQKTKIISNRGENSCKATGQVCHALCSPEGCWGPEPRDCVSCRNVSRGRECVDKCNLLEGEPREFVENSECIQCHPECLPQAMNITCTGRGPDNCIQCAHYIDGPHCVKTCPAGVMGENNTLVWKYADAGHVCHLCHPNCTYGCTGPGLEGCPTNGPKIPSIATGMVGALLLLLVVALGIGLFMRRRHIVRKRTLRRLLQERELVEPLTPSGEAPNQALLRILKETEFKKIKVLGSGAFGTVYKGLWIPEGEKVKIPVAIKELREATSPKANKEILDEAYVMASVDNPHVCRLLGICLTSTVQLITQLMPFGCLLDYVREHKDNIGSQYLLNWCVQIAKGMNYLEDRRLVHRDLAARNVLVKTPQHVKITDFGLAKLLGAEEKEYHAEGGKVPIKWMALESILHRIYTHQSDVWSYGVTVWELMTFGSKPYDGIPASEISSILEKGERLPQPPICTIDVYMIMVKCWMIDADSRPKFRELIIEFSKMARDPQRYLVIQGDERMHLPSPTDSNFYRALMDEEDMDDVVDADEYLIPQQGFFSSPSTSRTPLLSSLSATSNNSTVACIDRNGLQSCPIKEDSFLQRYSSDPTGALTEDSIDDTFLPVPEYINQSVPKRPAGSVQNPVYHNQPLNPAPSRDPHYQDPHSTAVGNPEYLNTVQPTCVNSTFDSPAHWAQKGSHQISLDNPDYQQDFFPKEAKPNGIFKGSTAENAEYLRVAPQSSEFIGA
Chain of human EGFR L858R (NIH/3T3 cells) (P00533 25-1210 L858R): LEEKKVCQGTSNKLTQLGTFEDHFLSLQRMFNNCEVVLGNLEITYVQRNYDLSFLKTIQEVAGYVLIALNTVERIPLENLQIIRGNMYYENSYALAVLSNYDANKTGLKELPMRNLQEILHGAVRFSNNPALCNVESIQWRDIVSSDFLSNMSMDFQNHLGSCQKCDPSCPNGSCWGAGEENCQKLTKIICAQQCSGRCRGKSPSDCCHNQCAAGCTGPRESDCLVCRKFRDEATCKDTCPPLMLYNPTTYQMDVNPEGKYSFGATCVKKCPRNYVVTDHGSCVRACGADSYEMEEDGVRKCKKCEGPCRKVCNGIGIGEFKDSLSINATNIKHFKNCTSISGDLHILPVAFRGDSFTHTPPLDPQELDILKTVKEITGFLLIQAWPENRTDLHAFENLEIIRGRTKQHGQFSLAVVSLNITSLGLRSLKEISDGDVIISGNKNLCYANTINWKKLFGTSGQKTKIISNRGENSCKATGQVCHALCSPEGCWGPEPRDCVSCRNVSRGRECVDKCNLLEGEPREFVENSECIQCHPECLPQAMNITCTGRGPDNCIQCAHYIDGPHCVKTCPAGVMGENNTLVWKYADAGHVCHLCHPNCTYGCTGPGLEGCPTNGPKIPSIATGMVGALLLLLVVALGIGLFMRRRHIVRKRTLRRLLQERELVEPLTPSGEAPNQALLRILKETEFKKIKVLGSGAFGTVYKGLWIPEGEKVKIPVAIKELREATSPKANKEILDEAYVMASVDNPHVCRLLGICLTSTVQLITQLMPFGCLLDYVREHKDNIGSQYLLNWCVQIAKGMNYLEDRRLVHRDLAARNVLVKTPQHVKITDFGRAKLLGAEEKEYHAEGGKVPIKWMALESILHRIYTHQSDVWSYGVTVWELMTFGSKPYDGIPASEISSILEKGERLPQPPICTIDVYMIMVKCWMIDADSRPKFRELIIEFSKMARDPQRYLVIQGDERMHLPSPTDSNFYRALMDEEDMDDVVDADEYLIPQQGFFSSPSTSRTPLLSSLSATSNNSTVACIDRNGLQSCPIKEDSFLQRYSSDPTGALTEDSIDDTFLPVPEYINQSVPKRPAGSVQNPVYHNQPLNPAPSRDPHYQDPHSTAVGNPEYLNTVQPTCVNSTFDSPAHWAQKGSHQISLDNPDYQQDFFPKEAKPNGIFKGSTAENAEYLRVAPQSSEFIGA
Chain of human EGFR L858R/T790M (NIH/3T3 cells) (P00533 25-1210 T790M/L858R): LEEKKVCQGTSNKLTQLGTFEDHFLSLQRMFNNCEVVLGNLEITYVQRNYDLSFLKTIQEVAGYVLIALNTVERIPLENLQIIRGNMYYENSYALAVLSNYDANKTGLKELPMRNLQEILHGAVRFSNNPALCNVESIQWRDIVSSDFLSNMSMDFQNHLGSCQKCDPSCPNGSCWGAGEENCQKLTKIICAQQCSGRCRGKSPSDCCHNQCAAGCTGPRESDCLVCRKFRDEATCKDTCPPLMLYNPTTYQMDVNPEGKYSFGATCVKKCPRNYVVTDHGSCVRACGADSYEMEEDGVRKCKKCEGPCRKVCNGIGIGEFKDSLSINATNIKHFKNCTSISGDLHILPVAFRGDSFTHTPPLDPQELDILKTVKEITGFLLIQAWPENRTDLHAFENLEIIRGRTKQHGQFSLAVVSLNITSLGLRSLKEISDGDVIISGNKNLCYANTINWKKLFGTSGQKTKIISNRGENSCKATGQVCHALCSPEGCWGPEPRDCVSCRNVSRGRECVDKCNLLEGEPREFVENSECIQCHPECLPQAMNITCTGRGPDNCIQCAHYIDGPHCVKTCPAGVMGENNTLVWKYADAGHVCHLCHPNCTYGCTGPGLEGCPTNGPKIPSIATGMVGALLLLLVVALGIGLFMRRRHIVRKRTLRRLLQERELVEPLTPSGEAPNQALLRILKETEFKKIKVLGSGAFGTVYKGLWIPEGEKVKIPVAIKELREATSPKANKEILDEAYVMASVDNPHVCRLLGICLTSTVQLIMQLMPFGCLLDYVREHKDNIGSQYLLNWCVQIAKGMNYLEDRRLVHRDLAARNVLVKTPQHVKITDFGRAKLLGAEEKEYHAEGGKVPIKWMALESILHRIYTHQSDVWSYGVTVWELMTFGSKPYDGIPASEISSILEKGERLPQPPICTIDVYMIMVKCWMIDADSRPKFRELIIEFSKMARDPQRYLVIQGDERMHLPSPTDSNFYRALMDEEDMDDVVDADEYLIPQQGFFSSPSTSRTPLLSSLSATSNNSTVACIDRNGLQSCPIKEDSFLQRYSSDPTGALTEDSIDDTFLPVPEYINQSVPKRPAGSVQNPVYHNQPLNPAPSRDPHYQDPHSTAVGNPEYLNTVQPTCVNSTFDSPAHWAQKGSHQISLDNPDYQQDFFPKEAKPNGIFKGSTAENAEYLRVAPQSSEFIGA
T1 sequence (P00533 669-1210 T790M/L858R): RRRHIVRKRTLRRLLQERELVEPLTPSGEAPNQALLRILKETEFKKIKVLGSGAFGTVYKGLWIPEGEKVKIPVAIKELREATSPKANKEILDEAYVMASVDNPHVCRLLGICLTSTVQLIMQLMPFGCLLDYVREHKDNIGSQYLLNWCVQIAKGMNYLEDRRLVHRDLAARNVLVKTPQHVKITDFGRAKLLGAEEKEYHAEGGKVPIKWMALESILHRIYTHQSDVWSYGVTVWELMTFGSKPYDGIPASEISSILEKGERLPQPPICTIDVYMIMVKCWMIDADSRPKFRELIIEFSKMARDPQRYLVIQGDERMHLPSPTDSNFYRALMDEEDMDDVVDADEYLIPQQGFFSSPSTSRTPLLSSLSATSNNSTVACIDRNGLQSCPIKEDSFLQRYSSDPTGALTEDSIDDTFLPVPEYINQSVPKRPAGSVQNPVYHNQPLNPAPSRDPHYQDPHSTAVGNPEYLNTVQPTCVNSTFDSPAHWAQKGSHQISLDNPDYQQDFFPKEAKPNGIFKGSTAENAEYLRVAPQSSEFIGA

Structure (SMILES) | IC50 [1, 5] [µM] | IC50 [1, 6] [µM] | IC50 [2] [µM] | IC50 [3] [µM] | IC50 [4] [µM]
Cc1cccc2nc(NC(=O)c3ccnc(OC(F)(F)F)c3)n([C@@H]3CCCCN(C(=O)/C=C/CN(C)C)C3)c12 [Example 17-102] | < 0.001 | 0.002 | 0.047 | 0.001 | 0.002
C=CC(=O)N1CCC[C@@H](n2c(NC(=O)c3cccc(C(F)(F)F)c3)nc3cc(C(=O)OC)ccc32)C1 [Example 17-110] | 0.119 | 10.8 | > 10 | 4.7 | 0.46
C=CC(=O)N1CCCCC(n2c(NC(=O)c3ccccc3)nc3cccc(C(=O)N4CCS(=O)(=O)CC4)c32)C1 (stereo not drawn) [Example 17-115] | 0.013 | 3.5 | > 10 | 1.6 | 0.165
CN(C)C/C=C/C(=O)N1CCCCC(n2c(NC(=O)c3cccc(C(F)(F)F)c3)nc3cc(CO)cc(C#N)c32)C1 (stereo not drawn) [Example 17-116] | < 0.001 | 0.011 | 0.47 | 0.019 | 0.008
C=CC(=O)N1CCCC[C@@H](n2c(NC(=O)c3ccccc3)nc3cccc(COCCOC)c32)C1 [Example 17-130] | 0.006 | 0.119 | 1.41 | 0.094 | 0.016
C=CC(=O)N1CCCC[C@@H](n2c(NC(=O)c3ccccc3)nc3cccc(CO)c32)C1 [Example 17-131] | < 0.001 | 0.005 | 0.311 | 0.01 | 0.002
C=CC(=O)N1CCCC[C@@H](n2c(NC(=O)c3ccccc3)nc3cccc(CN(C)CCS(C)(=O)=O)c32)C1 [Example 17-133] | 0.001 | 0.018 | 1.29 | 0.041 | 0.006
C=CC(=O)N1CCCCC(n2c(NC(=O)c3ccccc3)nc3cccc(C(=O)NCCC(=O)OC)c32)C1 (stereo not drawn) [Example 17-134] | 0.01 | 0.93 | > 10 | 0.63 | 0.073
C=CC(=O)N1CCCCC(n2c(NC(=O)c3ccccc3)nc3cccc(C(=O)NCC(=O)OC)c32)C1 (stereo not drawn) [Example 17-135] | 0.008 | 0.62 | > 10 | 0.4 | 0.045
C=CC(=O)N1CCCCC(n2c(NC(=O)c3ccccc3)nc3cccc(C(=O)NCCC(=O)O)c32)C1 (stereo not drawn) [Example 17-136] | 0.03 | 1.76 | 8.2 | > 10 | 6.5
C=CC(=O)N1CCCCC(n2c(NC(=O)c3ccccc3)nc3cccc(-c4nc(C)no4)c32)C1 (stereo not drawn) [Example 17-138] | 0.009 | 0.147 | > 10 | 0.45 | 0.067
C=CC(=O)N1CCCCC(n2c(NC(=O)c3ccccc3)nc3cccc(C(=O)N4C[C@@H](O)[C@H](O)C4)c32)C1 (stereo partly drawn) [Example 17-140] | 0.043 | 0.94 | 7.9 | 1.64 | 0.181
C=CC(=O)N1CCOCC(n2c(NC(=O)c3ccccc3)nc3cccc(-c4nc(C)no4)c32)C1 (stereo not drawn) [Example 17-141] | 0.01 | 0.247 | 7.8 | 0.68 | 0.097
CN(C)C/C=C/C(=O)N1CCC[C@@H](n2c(NC(=O)c3cccc(C(F)(F)F)c3)nc3cc(CO)ccc32)C1 [Example 17-143] | 0.014 | 0.233 | > 10 | 0.313 | 0.046
C=CC(=O)N1CCCC(n2c(NC(=O)c3cccc(C(F)(F)F)c3)nc3c2CCN(C(=O)OC)C3)C1 (stereo not drawn) [Example 17-167] | 0.128 | 2.62 | > 10 | 4.8 | 0.14
C=CC(=O)N1CCCC(n2c(NC(=O)c3cccc(C(F)(F)F)c3)nc3c2CCN(S(C)(=O)=O)C3)C1 (stereo not drawn) [Example 17-168] | 0.095 | 1.11 | > 2.77 | 0.6 | 0.072
C=CC(=O)N1CCCC(n2c(NC(=O)c3cccc(C(F)(F)F)c3)nc3c2CN(C(=O)OC)CC3)C1 (stereo not drawn) [Example 17-170] | 0.006 | 0.66 | > 10 | 0.39 | 0.01
C=CC(=O)N1CCCC(n2c(NC(=O)c3cccc(C(F)(F)F)c3)nc3c2CN(S(C)(=O)=O)CC3)C1 (stereo not drawn) [Example 17-171] | 0.316 | 2.4 | 9.9 | 1.86 | 0.16
C=CC(=O)N1CCCC(n2c(NC(=O)c3cccc(C(F)(F)F)c3)nc3c2CN(C)CC3)C1 (stereo not drawn) [Example 17-173] | 0.285 | 6.6 | > 10 | 0.67 | 0.84

Next, values leading:

IC50 [1, 5] [µM] | IC50 [1, 6] [µM] | IC50 [2] [µM] | IC50 [3] [µM] | IC50 [4] [µM] | Structure (SMILES)
< 0.001 | 0.018 | 0.61 | 0.023 | 0.02 | Cc1cccc2nc(NC(=O)c3cc(Cl)nc(OC(F)(F)F)c3)n([C@@H]3CCCCN(C(=O)/C=C/CN(C)C)C3)c12 [Example 17-104]
0.028 | 0.69 | > 10 | 8.2 | 0.86 | C=CC(=O)N1CCC[C@@H](n2c(NC(=O)c3cccc(C(F)(F)F)c3)nc3cc(CN4C[C@@H](O)[C@H](O)C4)ccc32)C1 [Example 17-120]
< 0.001 | 0.127 | > 10 | 0.259 | 0.016 | C=CC(=O)N1CCC[C@@H](n2c(NC(=O)c3cccc(C(F)(F)F)c3)nc3cc(CO)ccc32)C1 [Example 17-121]
0.003 | 0.068 | > 7.6 | 0.087 | 0.013 | C=CC(=O)N1CCC[C@@H](n2c(NC(=O)c3cccc(C(F)(F)F)c3)nc3cc(CN4CCC(F)(F)C4)ccc32)C1 [Example 17-125]
< 0.001 | 0.002 | 0.099 | 0.004 | 0.001 | C=CC(=O)N1CCCC[C@@H](n2c(NC(=O)c3ccccc3)nc3cc(CN(C)CCS(C)(=O)=O)cc(C)c32)C1 [Example 17-127]
< 0.001 | 0.007 | 0.186 | 0.006 | 0.002 | C=CC(=O)N1CCCC[C@@H](n2c(NC(=O)c3ccccc3)nc3cc(COCCOC)cc(C)c32)C1 [Example 17-128]
0.044 | 1.55 | > 10 | > 10 | 7.9 | C=CC(=O)N1CCCCC(n2c(NC(=O)c3ccccc3)nc3cccc(C(=O)NCC(=O)O)c32)C1 (stereo not drawn) [Example 17-137]
0.005 | 0.147 | > 9.1 | 0.305 | 0.043 | C=CC(=O)N1CCCCC(n2c(NC(=O)c3ccccc3)nc3cccc(C(=O)NCCS(C)(=O)=O)c32)C1 (stereo not drawn) [Example 17-139]
< 0.001 | 0.002 | 0.137 | 0.003 | 0.004 | C=CC(=O)N1CCCC[C@@H](n2c(NC(=O)c3ccnc(C)c3)nc3cc(CN4CC[C@H](O)C4)cc(C)c32)C1 [Example 17-146]
0.186 | 1.75 | 8.2 | 1.75 | 0.14 | C=CC(=O)N1CCCC(n2c(NC(=O)c3cccc(C(F)(F)F)c3)nc3c2CCN(C(C)=O)C3)C1 (stereo not drawn) [Example 17-169]
0.268 | 1.75 | 8.7 | 1.4 | 0.173 | C=CC(=O)N1CCCC(n2c(NC(=O)c3cccc(C(F)(F)F)c3)nc3c2CN(C(C)=O)CC3)C1 (stereo not drawn) [Example 17-172]
